Experimental data published in patent EP1458697B1, “BIPHENYLMETHYL-THIAZOLIDINEDIONES AND ANALOGUES AND THEIR USE AS PPAR-GAMMA ACTIVATORS” (Galderma Research & Development, S.N.C., priority 2001, dated 2003).

Key:
[1] = molecular target: T1, récepteur chimère Gal-PPARα (Homo sapiens, UniProt Q07869); experiment: Transactivation test, same protocol with chimeric receptor Gal-PPARα; type: cell-based; conditions: Hela cells; for activation at 1 µM: 24 h, compound at 1 microM, percent of activation relative to reference agonist (Wy 14643 = 100%), read-out: % d'activation (à 1 microM) PPARα
T1 sequence (Q07869 167-468): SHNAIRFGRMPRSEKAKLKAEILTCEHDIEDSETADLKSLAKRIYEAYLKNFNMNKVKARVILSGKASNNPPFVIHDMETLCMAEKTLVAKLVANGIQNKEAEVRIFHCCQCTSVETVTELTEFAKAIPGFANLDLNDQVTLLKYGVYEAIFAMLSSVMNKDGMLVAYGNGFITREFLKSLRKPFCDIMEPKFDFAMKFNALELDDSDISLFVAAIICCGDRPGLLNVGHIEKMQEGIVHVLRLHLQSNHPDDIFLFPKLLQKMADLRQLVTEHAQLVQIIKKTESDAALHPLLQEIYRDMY
From the text: De préférence, l'activateur des récepteurs de type PPARγ est spécifique, c'est à dire qu'il présente un rapport du pourcentage d'activation des récepteurs PPARγ, au pourcentage d'activation des récepteurs PPARα (calculé par rapport à un composé de référence, le Wy 14643, activant les PPARα de 100%) supérieur ou égal à 3. De préférence, ce rapport est supérieur ou égal à 5 et plus avantageusement supérieur ou égal à 10.
(§1) La capacité des molécules à activer et/ou inhiber les récepteurs PPARγ est évaluée à partir de cellules Hela transfectées de manière stable avec le récepteur chimère Gal-PPARγ (LBD).
(§2) Des plaques 96 puits sont ensemencées à raison de 10 000 cellules /100 µl / puit dans du milieu DMEM 10% SDL puis placées 24 heures à 37°C, 7% CO2.
(§3) Pour déterminer l'activité agoniste PPARγ, les cellules sont ensuite traitées par ajout de 5 µl puit des molécules à tester à la concentration finale de 1 µM. Des cellules sont également traitées en parallèle avec un agoniste de référence, l'acide (-)-3-{4-[2-(Benzooxazol-2-yl-methyl-amino)-ethoxy]-phenyl}-2-ethoxy-propionique, 1 µM.
(§4) Après une nouvelle incubation de 24 heures à 37°C, 7% CO2, un dosage de la luciférase est effectué à l'aide du kit « Steady-Glo Luciferase Assay System » de Promega. Le comptage de la luminescence se fait sur un lecteur de microplaque Microbéta Trilux (Wallac).
(§5) L'activité agoniste du produit testé sera exprimée en pourcentage d'activation par rapport au témoin agoniste l'agoniste de référence à 1 µM.
En appliquant ce même protocole avec le récepteur chimère Gal-PPARα, on peut mesurer l'activité agoniste des composés vis à vis des récepteurs PPAR alpha et ainsi la comparer avec celui du récepteur PPARγ.
(§6) L'AC50, exprimée en nM, est déterminée comme la concentration permettant d'obtenir 50% d'activation du signal basal par rapport à l'agoniste de référence.

[2] = molecular target: T2, récepteur chimère Gal-PPARγ (LBD) (Homo sapiens, UniProt P37231); experiment: Transactivation test, Hela cells stably transfected with chimeric receptor Gal-PPARγ (LBD), luciferase readout; type: cell-based; conditions: M-HeLa, 24 h, compound at 1 microM, percent of activation relative to reference agonist at 1 µM, read-out: % d'activation (à 1 microM) PPARγ
T2 construct: le récepteur chimère Gal-PPARγ (LBD); Gal (fusion partner); expressed in transfected cells; host or cells: HeLa cells, stably transfected
T2 sequence (P37231 238-503 limits assumed): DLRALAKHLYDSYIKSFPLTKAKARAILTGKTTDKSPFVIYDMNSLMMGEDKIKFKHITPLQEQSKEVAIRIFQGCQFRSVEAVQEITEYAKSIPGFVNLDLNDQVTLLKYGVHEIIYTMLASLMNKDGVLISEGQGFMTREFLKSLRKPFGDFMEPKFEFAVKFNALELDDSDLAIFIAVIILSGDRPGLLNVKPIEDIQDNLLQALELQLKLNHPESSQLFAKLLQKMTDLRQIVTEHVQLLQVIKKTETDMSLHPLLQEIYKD
Procedure: L'activité agoniste vis à vis des récepteurs PPARγ des composés selon l'invention peut être évaluée par des tests de transactivation.
as §1, §2, §3, §4, §5, §6

| SMILES | activation at 1 µM [1] [%] | AC50 ([1]; concentration giving 50% activation relative to reference agonist, read-out: AC50 (en nM) PPARα) [nM] | activation at 1 µM [2] [%] |
| --- | --- | --- | --- |
| CN(Cc1cccc(-c2ccc(CC3SC(=O)NC3=O)cc2)c1)C(=O)c1ccc(N(C)C)c2ccccc12 (centres unmarked) [Composé de l'exemple 13, 4-Dimethylamino-N-[4'-(2,4-dioxo-thiazolidin-5-ylmethyl)-biphenyl-3-ylmethyl]-N-methyl-naphthalene-1-carboxamide] | 13.4 | > 50000 | 112 |
| CN(C(=O)Nc1ccc2ccccc2c1)c1cccc(-c2ccc(CC3SC(=O)NC3=O)cc2)c1 (centres unmarked) [Composé de l'exemple 21, 1-[4'-(2,4-Dioxo-thiazolidin-5-ylmethyl)-biphenyl-3-yl]-1-methyl-3-naphthalen-2-yl-urée] | -4.2 |  | 104 |
